Reference: patent US5434256A, “Diamine platinum complexes as antitumor agents” (priority 1994, dated 1995)
“Also recorded” adds a separate entry of the source.

Legend:
L1210/DDP cells = assay: MTT cytotoxicity, cisplatin-resistant L1210/DDP (Example 5, Table 10); format: cell-based, murine; conditions: 72 hr (3 days) continuous exposure
L1210/DACH cells = assay: MTT cytotoxicity, tetraplatin-resistant L1210/DACH (Example 5, Table 10); format: cell-based, murine; conditions: 72 hr (3 days) continuous exposure
L1210/0 cells [1] = assay: In vivo antitumor activity, L1210/0 (Example 6, Table 11); set-up: species or system male BDF1 mice
Protocol: Cisplatin-sensitive L1210/0 or cisplatin-resistant L1210/DDP cells (1×10^5 cells/mouse) were injected intraperitoneally in male BDF1 mice on day 0, and the drug, in an aqueous medium, administered intraperitoneally at dose levels ranging from 1.56 to 200 mg/kg on days 1, 5 and 9. The median life spans of control (C) and treated (T) animals were determined, and the percent T/C at the optimal dose calculated as an indicator of antitumor efficacy. The complexes were also evaluated against the M5076 reticulosarcoma. […]. The tumor volumes were measured periodically and efficacy at the optimal dose reported as tumor growth delay (TGD), which is defined as the time difference in days for the tumor in control and treated mice to reach a specified volume.
BDF1 mice inoculated i.p. with 10^5 L1210 Leukemia cells on day 0 wer
administered the drug on days 1, 5, and 9. […]

L1210/0 cells [2] = assay: MTT cytotoxicity, L1210/0 (Example 5, Table 10); format: cell-based, murine; conditions: 72 hr (3 days) continuous exposure
Murine Leukemia 1210/DDP = assay: In vivo antitumor activity against murine leukemia L1210/DDP (Example 3, Table 7); set-up: species or system BDF1 mice; conditions: for % T/C (mean survival time of treated/mean survival time of control) × 100: at optimal dose/MTD
Protocol: (§1) Each of the platinum complexes was evaluated in vivo against L1210/0, L1210/DDP, L1210/DACH and M5076 cells at several dose levels. […] The data at optimal doses are reproduced in Tables 4-7 along with data for the cyclobutanedicarboxylato, aquasulfato, methylmalonato and tartronato analogs (compounds 1-4 in Table 1).
(§2) BDF1 mice inoculated i.p. with 10^5 L1210 Leukemia cells on day 0 and
drug administed i.p. on days 1, 5, and 9. MTD = Maximum Tolerated Dose
(§3) (mg/kg/injection), % T/C = (mean survival time of treated/mean survival
(§4) time of control) × 100. Figures in parenthesis indicated long term

M5076 Tumor Model = assay: In vivo antitumor activity against M5076 tumor model (Example 3, Table 4); set-up: species or system BDF1 mice; TGD (Tumor Growth Delay): unit not given beside the values; conditions: for MTD (Maximum Tolerated Dose) / TGD (Tumor Growth Delay): M5076 s.c., BDF1 mice, i.p. days 7, 14, 21, 28; for TGD (Tumor Growth Delay): at optimal dose/MTD
Protocol: as §1
BDF1 mice inoculated s.c. with 10' M5076 cells on day 0 and drug
administered i.p on days 7, 14, 21, and 28. MTD = Maximum Tolerated Dose
(mg/kg/injection), TGD = Tumor Growth Delay

Murine Leukemia L1210/0 = assay: In vivo antitumor activity against murine leukemia L1210/0 (Example 3, Table 5); set-up: species or system BDF1 mice; conditions: for MTD (Maximum Tolerated Dose) / % T/C (mean survival time of treated/mean survival time of control) × 100 / long term survivors/no. tested: L1210/0 i.p., BDF1 mice, drug i.p. days 1, 5, 9; for % T/C (mean survival time of treated/mean survival time of control) × 100: at optimal dose/MTD; for long term survivors/no. tested: figures in parenthesis
Protocol: as §1
BDF1 mice inoculated i.p. with 10^5 L1210 Leukemiacells on day 0 and
(§5) drug administered i.p. on days 1, 5, and 9. MTD = Maximum Tolerated Dose
as §3
time of control) × 100. Figures in parenthesis indicate long term

A2780 cells = assay: Modified MTT cytotoxicity assay, human ovarian A2780 (Example 2, Table 3); format: cell-based; conditions: continuous exposure (5 days in table footnote; 7 days in text)
[3] = Renal and hematological toxicity, single i.p. dose (Table 8); conditions: for BUN d.5: blood urea nitrogen, saline control 20.9; for BUN d.5 / Survivors on d.14 / Body Wt. on d.5: single i.p. dose (mg/kg): 1,4-DACH-Pt^II CBDCA 300, 1,4-DACH-Pt^IV Cl4 8.0, Tetraplatin 8.0, Cis-platin 12.0, Carboplatin 150; for Body Wt. on d.5: mean, S.D. less than 20%; for myelotoxicity / myelosuppression (in words): leucopenia
L1210/0 cells [4] = assay: Modified MTT cytotoxicity assay, murine leukemia L1210/0 (Example 2, Table 3); format: cell-based; conditions: for IC50: L1210/0, MTT, continuous exposure 5 days
[5] = system: Murine Leukemia L1210/DACH; assay: In vivo antitumor activity against murine leukemia L1210/DACH (Example 3, Table 6); set-up: species or system BDF1 mice; conditions: for MTD (Maximum Tolerated Dose) / % T/C (mean survival time of treated/mean survival time of control) × 100 / long term survivors/no. tested: L1210/DACH i.p., BDF1 mice, drug i.p. days 1, 5, 9; for % T/C (mean survival time of treated/mean survival time of control) × 100: at optimal dose/MTD; for long term survivors/no. tested: figures in parenthesis
Protocol: as §1, §2, §5, §3, §4

[6] = L1210/DDP i.p., BDF1 mice, drug i.p. days 1, 5, 9

SMILES	IC50 (L1210/DDP cells) [nM]	IC50 (L1210/DACH cells) [nM]	IC50 (L1210/0 cells [2]) [nM]	antitumor activity in vivo against L1210/DDP (in words) (Murine Leukemia 1210/DDP)	MTD (Maximum Tolerated Dose) (Murine Leukemia 1210/DDP; [6]) [mg/kg/injection]	% T/C (mean survival time of treated/mean survival time of control) × 100 (Murine Leukemia 1210/DDP; [6]) [%]	MTD (Maximum Tolerated Dose) (M5076 Tumor Model) [mg/kg/injection]	TGD (Tumor Growth Delay) (M5076 Tumor Model)	MTD (Maximum Tolerated Dose) (Murine Leukemia L1210/0) [mg/kg/injection]	% T/C (mean survival time of treated/mean survival time of control) × 100 (Murine Leukemia L1210/0) [%]	long term survivors/no. tested (Murine Leukemia L1210/0)	IC50 (A2780 cells) [nM]	BUN d.5 [3] [mg %]	Body Wt. on d.5 [3] [% on control]	IC50 (L1210/0 cells [4]) [nM]	antitumor activity in vivo against L1210/DACH (in words) ([5]; L1210/DACH)	MTD (Maximum Tolerated Dose) [5] [mg/kg/injection]	% T/C (mean survival time of treated/mean survival time of control) × 100 [5] [%]	further results
CC(=O)[O][Pt]([Cl])([Cl])[O]C(C)=O.N[C@H]1CCCC[C@@H]1N [Compound 13, (S,S-1,2-DACH)PtCl2 trans-(acetate)2]	7000	4200	880																% T/C at optimal dose (L1210/0 cells [1]; L1210/0 i.p., drug i.p. days 1, 5, 9, median survival, optimal dose (mg/kg/inj): 12, 13, 14: 25, 15: 12.5, Cisplatin: 5): 265%; Optimal Dose (L1210/0 cells [1]; i.p., dose levels 1.56 to 200 mg/kg tested, L1210/0, L1210/DDP and M5076): 25 mg/kg/inj
N[C@@H]1CCCC[C@H]1N.[Cl][Pt+2]([Cl])([Cl])[Cl] [Tetraplatin, reference compound]	440	5300	110	active	3.1	143	3.1	11.8	3.1	310	2/5	200	17.2	94	110	resistant to tetraplatin	3.1	89	antitumor properties against M5076 (in words) (M5076 Tumor Model; M5076): the least active; antitumor activity in vivo against L1210/0 (in words) (Murine Leukemia L1210/0): active; Survivors on d.14 [3]: 5/5; myelotoxicity / myelosuppression (in words) ([3]; single i.p. dose): myelosuppressive; potency relative to cis-platin (L1210/0 cells [4]; L1210/0 and A2780 tumor lines, more potent than cis-platin): 2-3 fold; effectiveness against murine versus human cells (in words) (L1210/0 cells [4]; L1210/0 versus A2780): more effective against murine than human cells
CCCCCCC(=O)[O][Pt]([Cl])([Cl])[O]C(=O)CCCCCC.N[C@@H]1CCCC[C@H]1N [Compound 20, (R,R-1,2-DACH)PtCl2trans(heptanoate)2]	700	2300	150																
NC1CCC(N)CC1.O=C1[O][Pt][O]C(=O)C1O [Compound 4, Cis-1,4-diaminocyclohexanetartronatoplatinum(II)]					50	187	50	30.66	25	406	1/5	110			500	highly active	50	343	long term survivors/no. tested [5]: 4/5; cure rate ([5]; L1210/DACH, Table 6): 80%
NC1CCC(N)CC1.[Cl][Pt]([Cl])([Cl])[Cl] (stereo not drawn) [Compound 7, Cis-1,4-Diaminocyclohexanetetrachloroplatinum(IV)]				good activities; also recorded: comparable or slightly greater activity	3.1	170	3.1	18.74	3.1	335	2/5	90	21.3	89	120	good activities; also recorded: good activity	3.1	146	long term survivors/no. tested (Murine Leukemia 1210/DDP; L1210/DDP i.p., BDF1 mice, drug i.p. days 1, 5, 9, figures in parenthesis): 1/5; antitumor activity in vivo against L1210/0 (in words) (Murine Leukemia L1210/0): excellent activity; also recorded: comparable or slightly greater activity; Survivors on d.14 [3]: 4/5; nephrotoxicity (in words) ([3]; single i.p. dose, BUN): did not show any indication of nephrotoxicity; myelotoxicity / myelosuppression (in words) ([3]; single i.p. dose): did not show any indication of nephrotoxicity or myelotoxicity
NC1CCC(N)CC1.O.O=C([O-])C1(C(=O)[O-])CCC1.[Pt+2] [Compound 1, Cis-1,4-diaminocyclohexane-1,1-cyclobutanedicarboxylato-platinum(II).H2 O]				inactive			200	42.3	200	195		430	18.0	99	1600		200	180	long term survivors/no. tested [5]: 1/5
CCC(=O)[O][Pt]([Cl])([Cl])[O]C(=O)CC.N[C@@H]1CCCC[C@H]1N [Compound 16, (R,R-1,2-DACH)PtCl2 trans-(Propionate)2]	560	550	110																
CCCCC(=O)[O][Pt]([Cl])([Cl])[O]C(=O)CCCC.N[C@@H]1CCCC[C@H]1N [Compound 18, (R,R-1,2-DACH)PtCl2 trans(pentanoate)2]	270	240	40																
CCC(=O)[O][Pt]([Cl])([Cl])[O]C(=O)CC.NC1CCC(N)CC1 [Compound 21, (cis-1,4-DACH)PtCl2 trans-(propionate)2]	500	40	5.5																
